The values that follow come from patent publication US20150086719A1, “USE OF […] MARINE WOODBORERS” (Janssen Pharmaceutica, NV, priority 2012, published 2015).

The test system of assay [1] is Teredo navalis. Kind of assay: Marine field test according to EN 275: rating of attack on tralopyril impregnated Scots pine sapwood by T. navalis. As to conditions: single wood samples; tralopyril retention 1087 g/m^3 (solvent based formulation, methanol); 1 year in seawater. Also on record: key: 0: No destruction No visible tunnel or destruction by marine organisms; Little destruction Tunnels are one or a few number and up to cover 15% of total sample area; Moderate destruction Tunnels cover between 15-25% of total sample area; 3: Violent destruction Tunnels cover between 25-50% of total sample area; 4: Fully destruction Tunnels covered more than 50% of total sample area; —: some samples were destroyed the second year (indicated by ‘-’ in Table 1). Format: in vivo. As for the experimental part:
(§1) The effectiveness to reduce the presence of marine woodborers in wood situated in a marine environment was determined using the guidelines and recommendations in EN 275: 1992—wood preservatives—determination of the protective effectiveness against marine woodborers.
(§2) Wood Material The wood material used for both control groups (untreated) and test groups was Scots pine sapwood (Pinus sylvestris L.). The size of the wood samples was 25×70×200 mm and all pine specimens were pure sapwood and free from defects.
Full cell Impregnation Procedure: • place specimens into a treatments vessel (e.g. an exsiccator) • pull vacuum until 7 hPa is reached and hold said vacuum for 15 minutes • flood specimens under vacuum with treatment solution until the specimens are completely immersed • release vacuum and make sure that samples stay completely immersed while ambient pressure presses treatment solution into the specimens • leave specimens for further 2 hours immersed in the treatment solution • subsequently remove the specimens from the treatment solution, drain drip off solution for some minutes and place the specimens container on inert supports. • keep specimens in the closed container for 3 days (over weekend) for fixation, subsequently open the lid every day a bit more and remove it completely after 4 days • dry specimens in the open container at room temperature further 3 days […]

For assay [2], the system named is Limnoria lignorum. Kind of assay: Marine field test according to EN 275: rating of attack on tralopyril impregnated Scots pine sapwood by Limnoria l. Format: in vivo. To be noted: for Rating of attack by Limnoria l. 1st year, average / Rating of attack by Limnoria l. 2nd year, average: average of samples, scale 0-4; for Rating of attack by Limnoria l. 1st year, average / Rating of attack by Limnoria l. 1st year: 1 year in seawater; for Rating of attack by Limnoria l. 2nd year, average / Rating of attack by Limnoria l. 2nd year: 2 years in seawater; for Rating of attack by Limnoria l. 1st year / Rating of attack by Limnoria l. 2nd year: single wood samples. The arrangement: key to Rating of attack by Limnoria l. 1st year / Rating of attack by Limnoria l. 2nd year: 0: No destruction No visible tunnel or destruction by marine organisms; Little destruction Tunnels are one or a few number and up to cover 15% of total sample area; Moderate destruction Tunnels cover between 15-25% of total sample area; 3: Violent destruction Tunnels cover between 25-50% of total sample area; 4: Fully destruction Tunnels covered more than 50% of total sample area; —: some samples were destroyed the second year (indicated by ‘-’ in Table 1). As for the experimental part: as §1, §2
Full cell Impregnation Procedure: • place specimens into a treatments vessel (e.g. an exsiccator) • pull vacuum until 7 hPa is reached and hold said vacuum for 15 minutes • flood specimens under vacuum with treatment solution until the specimens are completely immersed • release vacuum and make sure that samples stay completely immersed while ambient pressure presses treatment solution into the specimens • leave specimens for further 2 hours immersed in the treatment solution • subsequently remove the specimens from the treatment solution, drain drip off solution for some minutes and place the specimens container on inert supports. • keep specimens in the closed container for 3 days (over weekend) for fixation, subsequently open the lid every day a bit more and remove it completely after 4 days • dry specimens in the open container at room temperature further 3 days
1a) Water Dilutable Formulation (Emulsifiable Concentrate)
Tralopyril dissolved in methanol (1600 ppm and 400 ppm).
1a) water dilutable formulation : 228 g and 846 g a.i./ m^3
1b) solvent based formulation : 1087 g a.i./ m^3
Bay (Gullmar fjord) outside the Kristineberg Marine Research Station, 100 km north of Gothenburg, Sweden.
Temperature and salinity of water: Temperature varies between (18-22)° C. in the summer and −1.5° C. in mid-winter. Salinity varies between 26 g/kg and 34 g/kg. Good oxygen level due to a strong water flow.
Borer activity: there is borer activity all around the year. […] The criterion for failure due to Teredo attack (tunnels covering more than 50% of the specimen area as it appears on the X-ray film) is often fulfilled already within 6 months for untreated control specimens. Maximum “service” life of untreated controls is approximately 1.5 years, after which the samples are often broken to pieces by the autumn storms.
Specimens were hung on nylon-bars (diameter =24 mm) of two ladder-like rigs placed on the sea bottom at 6±0.4 m depth at low tide. The test rigs have heavy concrete foundations and each rig was kept upright by a 50 cm diameter buoy. As a result of the arrangement, the specimens are located at depths varying from 4 m to 6.5 m below water surface during the exposure period.
Gribbles: Limnoria lignorum (present but not very active)

[3] abbreviates: tralopyril retention 1087 g/m^3.
[4] abbreviates: tralopyril retention 228 g/m^3 (water dilutable formulation).
Setting [5] is: tralopyril retention 846 g/m^3 (water dilutable formulation).
[6] abbreviates: tralopyril retention 1087 g/m^3 (solvent based formulation, methanol).

As to `N#Cc1c(-c2ccc(Cl)cc2)[nH]c(C(F)(F)F)c1Br` [tralopyril, 4-bromo-2-(4-chlorophenyl)-5-(trifluoromethyl)-1H-pyrrole-3-carbonitrile], the “Rating of attack by T. navalis 1st year” value in assay [1] was 0. Further, the “Rating of attack by Limnoria l. 1st year, average” value in assay [2] (tralopyril retention 228 g/m^3), in assay [2] (tralopyril retention 846 g/m^3) and in assay [2] (setting [3]) was 0.0 in each case. In addition, the “Rating of attack by Limnoria l. 2nd year, average” value in assay [2] (tralopyril retention 228 g/m^3), in assay [2] (tralopyril retention 846 g/m^3) and in assay [2] (setting [3]) was 0.0 each time. For the same compound, the “Rating of attack by Limnoria l. 1st year” value in assay [2] (setting [4]), in assay [2] (setting [5]) and in assay [2] (setting [6]) was 0 throughout. The “Rating of attack by Limnoria l. 2nd year” value in assay [2] (setting [4]), in assay [2] (setting [5]) and in assay [2] (setting [6]) was 0 in each case.
